These results are taken from patent US20090325936A1, “IMIDAZOPYRIDINE ANALOGS AS CB2 RECEPTOR MODULATORS, USEFUL IN THE TREATMENT OF PAIN, RESPIRATORY AND NON-RESPIRATORY DISEASES” (priority 2006, published 2009).

Where two headings read alike, the source gives them in different places.

One assay concerns the target human CB1 (Homo sapiens, UniProt P21554). Nature of the assay: Cyclic AMP assay (HTRF), CHO cells expressing human CB1. In kind it is cell-based. Here is the method: (§1) Chinese Hamster Ovary cells (CHO) expressing human CB1 or human CB2 (3.3×10^5 cells/ml) were preincubated for 15 min at room temperature with tested agonist and 3-isobutyl-1-methylxanthine (IBMX; 200 μM) in phosphate buffered saline containing 1 mg/ml BSA (assay buffer) followed by 30 min incubation with forskolin in a total volume of 10 μl. The optimal forskolin concentration for each cell line was established in a separate experiment and adjusted to stimulate 70% of maximal cAMP response. cAMP content was measured using an HTRF assay (CisBio) according to the manufacturer's two step protocol.

A further assay addresses human CB2 (Homo sapiens, UniProt P34972). Nature of the assay: Cyclic AMP assay (HTRF), CHO cells expressing human CB2. The class given is cell-based. The settings on record: for Emax: CHO, read-out: CB2 Emax. Here is the method:
as §1

Where [1] appears, read: agonist, forskolin-stimulated cAMP in CHO cells expressing human CB2, text calls the value IP, read-out: CB2 cAMP.

Chain of human CB2 (P34972 whole entry): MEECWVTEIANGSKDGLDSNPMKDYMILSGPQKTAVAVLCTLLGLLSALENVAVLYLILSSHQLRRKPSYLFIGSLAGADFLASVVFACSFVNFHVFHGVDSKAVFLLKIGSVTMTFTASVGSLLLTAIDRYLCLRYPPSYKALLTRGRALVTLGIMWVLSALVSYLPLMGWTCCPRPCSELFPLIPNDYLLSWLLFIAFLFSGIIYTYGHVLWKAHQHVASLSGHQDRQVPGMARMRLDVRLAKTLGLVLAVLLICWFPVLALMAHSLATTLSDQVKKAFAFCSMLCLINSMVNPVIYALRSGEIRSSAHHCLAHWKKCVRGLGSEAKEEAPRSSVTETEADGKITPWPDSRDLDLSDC
Chain of human CB1 (P21554 whole entry): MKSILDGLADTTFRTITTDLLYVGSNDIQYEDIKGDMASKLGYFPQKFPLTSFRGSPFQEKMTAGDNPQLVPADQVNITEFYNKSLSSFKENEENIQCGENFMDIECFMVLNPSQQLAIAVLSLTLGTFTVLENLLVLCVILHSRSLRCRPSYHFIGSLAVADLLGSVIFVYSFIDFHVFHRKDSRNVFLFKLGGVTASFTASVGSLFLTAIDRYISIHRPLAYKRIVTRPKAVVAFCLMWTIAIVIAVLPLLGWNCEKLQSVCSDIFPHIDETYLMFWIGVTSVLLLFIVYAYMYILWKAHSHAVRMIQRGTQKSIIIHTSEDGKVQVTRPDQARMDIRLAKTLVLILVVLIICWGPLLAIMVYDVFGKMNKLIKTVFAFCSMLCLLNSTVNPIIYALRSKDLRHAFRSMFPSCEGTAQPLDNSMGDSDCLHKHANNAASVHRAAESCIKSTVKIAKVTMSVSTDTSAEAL

`O=C(Nc1cccc2cnccc12)c1nc(C(=O)N2CCC(F)CC2)n2ccccc12` returned an EC50 on human CB1 of 2.15 µM. On human CB2, the EC50 was 0.0235 µM and the Emax is 79.5%.
For `O=C(NC12CC3CC(CC(C3)C1)C2)c1nc(C(O)c2cccnc2)n2ccccc12` (stereo not drawn), the EC50 was above 17 µM at human CB1 and 0.0462 µM at human CB2. For the same molecule, the Emax at human CB2 was 80.8%.
In the case of `O=C(c1cccc(Cl)c1)c1nc(-c2ccc(F)cc2)n2ccccc12`, the EC50 on human CB1 was above 17 µM; at human CB2 (setting [1]), 0.176 µM. Also, on human CB2, the Emax came to 63.7%.
`O=C(NC12CC3CC(CC(C3)C1)C2)c1nc(Oc2cccc(F)c2)n2ccccc12`: the EC50 was 0.14 µM at human CB1 and 0.00192 µM on human CB2. In addition, the Emax at human CB2 is 91.5%.
With `CC(NC(=O)c1nc(N2CCOCC2)n2ccccc12)C(C)(C)C` (stereo not drawn), the EC50 on human CB1 is above 17 µM. For the same molecule, at human CB2, the EC50 was 0.0052 µM and the Emax was found to be 99.5%.
The like results for `O=C(NC12CC3CC(CC(C3)C1)C2)c1nc(C2CCCN2)n2ccccc12` (stereo not drawn) were, in that order, 0.845 µM, 0.00593 µM and 87.1%.
The like results for `O=C(NC1(c2ccccc2)CC1)c1nc(-c2cccc(F)c2)n2ccccc12` were, in that order, 0.544 µM, 0.062 µM and 69.8%.
The like results for `CC(NC(=O)c1nc(Cl)c2ccccn12)c1ccccc1Cl` (stereo not drawn) were, in that order, above 17 µM, 0.0184 µM and 83.8%.
`O=C(NC(C1CC1)C1CC1)c1nc(-c2ccc(F)cc2)c2ccccn12` yielded an EC50 on human CB1 of 0.405 µM. Besides, on human CB2, the EC50 came out at 0.00201 µM and the Emax was determined as 96.4%.
For `O=C(Nc1ccccc1Cl)c1nc(CN2CCC(O)C2)c2ccccn12` (stereo not drawn), the EC50 at human CB1 was above 17 µM; on human CB2 (setting [1]) it was 0.261 µM. For the same molecule, on human CB2, the maximal response (Emax) turned out to be 69.9%.
On to `O=C(c1ccc2ccccc2c1)c1nc(CN2CCOCC2)c2ccccn12`, for which the EC50 at human CB1 is 0.878 µM. On human CB2, the EC50 is 0.00228 µM and the Emax was found to be 76.7%.
Take `O=C(NCC1CCOCC1)c1nc(-c2cccnc2)n2ccccc12`: the EC50 on human CB1 was above 17 µM; at human CB2 (setting [1]), 6.43 µM. Further, the maximal response (Emax) on human CB2 came to 74.7%.
